Results as given in ChEMBL document CHEMBL5236587, “Discovery of oxazoline enhancers of cellular progranulin release” (Bioorg Med Chem Lett, 2023).

Legend:
[1] = biological target: Muscarinic acetylcholine receptor M3 (Homo sapiens, UniProt P20309); assay: Antagonist activity at M3 receptor (unknown origin)
[2] = biological target: Voltage-gated inwardly rectifying potassium channel KCNH2 (Homo sapiens, UniProt Q12809); assay: Inhibition of human ERG; type: toxicity
[3] = Induction of progranulin secretion in mouse BV-2 cells; type: functional, cell-based

Sequence of Muscarinic acetylcholine receptor M3 (P20309 whole entry): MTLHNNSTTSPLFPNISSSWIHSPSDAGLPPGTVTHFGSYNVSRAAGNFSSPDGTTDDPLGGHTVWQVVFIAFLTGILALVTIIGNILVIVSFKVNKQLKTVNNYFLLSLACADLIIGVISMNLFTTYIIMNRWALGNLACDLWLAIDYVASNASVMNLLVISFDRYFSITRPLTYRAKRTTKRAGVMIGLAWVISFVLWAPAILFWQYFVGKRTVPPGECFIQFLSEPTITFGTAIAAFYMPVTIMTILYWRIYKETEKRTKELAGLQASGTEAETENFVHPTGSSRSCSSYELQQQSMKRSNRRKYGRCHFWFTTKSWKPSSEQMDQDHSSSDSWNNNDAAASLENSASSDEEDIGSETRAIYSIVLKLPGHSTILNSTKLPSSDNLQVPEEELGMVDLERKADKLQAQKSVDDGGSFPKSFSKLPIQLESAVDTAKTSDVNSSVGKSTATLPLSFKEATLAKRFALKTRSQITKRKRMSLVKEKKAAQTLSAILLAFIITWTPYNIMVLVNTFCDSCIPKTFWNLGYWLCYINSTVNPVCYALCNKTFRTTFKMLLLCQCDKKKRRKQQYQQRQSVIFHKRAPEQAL
Sequence of Voltage-gated inwardly rectifying potassium channel KCNH2 (Q12809 whole entry): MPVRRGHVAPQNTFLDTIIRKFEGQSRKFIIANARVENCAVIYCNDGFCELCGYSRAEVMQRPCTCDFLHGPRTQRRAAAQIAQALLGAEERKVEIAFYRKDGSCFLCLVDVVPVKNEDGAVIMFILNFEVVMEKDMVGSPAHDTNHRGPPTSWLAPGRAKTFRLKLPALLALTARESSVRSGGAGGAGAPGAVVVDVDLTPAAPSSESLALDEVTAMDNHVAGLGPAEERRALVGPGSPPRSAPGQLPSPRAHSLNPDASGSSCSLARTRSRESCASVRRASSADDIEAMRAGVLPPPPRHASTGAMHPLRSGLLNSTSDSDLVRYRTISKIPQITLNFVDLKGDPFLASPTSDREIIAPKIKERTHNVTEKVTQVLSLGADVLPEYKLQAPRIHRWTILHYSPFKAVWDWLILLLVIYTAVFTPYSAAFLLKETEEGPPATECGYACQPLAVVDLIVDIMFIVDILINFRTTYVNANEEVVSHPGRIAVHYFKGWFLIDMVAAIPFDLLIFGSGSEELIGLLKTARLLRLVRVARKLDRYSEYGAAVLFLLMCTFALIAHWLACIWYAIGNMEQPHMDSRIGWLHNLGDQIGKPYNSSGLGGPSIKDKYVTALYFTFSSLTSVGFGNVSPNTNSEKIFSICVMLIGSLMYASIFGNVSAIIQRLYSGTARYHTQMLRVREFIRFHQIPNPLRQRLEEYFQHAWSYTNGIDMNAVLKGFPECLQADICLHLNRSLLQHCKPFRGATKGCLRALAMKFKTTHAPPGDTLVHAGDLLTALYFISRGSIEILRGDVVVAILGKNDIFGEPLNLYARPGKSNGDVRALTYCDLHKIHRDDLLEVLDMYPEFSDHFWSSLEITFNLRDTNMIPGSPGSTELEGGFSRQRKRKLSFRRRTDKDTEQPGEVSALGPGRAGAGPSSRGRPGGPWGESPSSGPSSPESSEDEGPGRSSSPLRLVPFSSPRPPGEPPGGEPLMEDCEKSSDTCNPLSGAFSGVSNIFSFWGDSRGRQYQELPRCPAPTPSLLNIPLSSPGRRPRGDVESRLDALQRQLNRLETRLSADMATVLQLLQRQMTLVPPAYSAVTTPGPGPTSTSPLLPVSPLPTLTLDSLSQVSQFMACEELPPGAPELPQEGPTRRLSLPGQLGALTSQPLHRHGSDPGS

Compound | EC50 [1] [nM] | IC50 [2] [nM] | EC50 [3] [nM]
O=C(O[C@H]1CN2CCC1CC2)N1CCc2ccccc2[C@@H]1c1ccc(F)cc1 | 17000 | 340 | 257
O=C(O[C@H]1CN2CCC1CC2)N1CCc2ccccc2[C@@H]1c1ccccc1 [SOLIFENACIN] | 24 | – | 1300
